The values below come from US12044651B2, “Sensor device and methods” (SCENTIAN BIO LIMITED, priority 2016, dated 2024).

SMILES strings stand for the structures.

Common to all, as to assay type: binding
The target of assay [1] is T1, OR35a (Drosophila melanogaster, UniProt Q9V3Q2).
T1 sequence (Q9V3Q2 1-409): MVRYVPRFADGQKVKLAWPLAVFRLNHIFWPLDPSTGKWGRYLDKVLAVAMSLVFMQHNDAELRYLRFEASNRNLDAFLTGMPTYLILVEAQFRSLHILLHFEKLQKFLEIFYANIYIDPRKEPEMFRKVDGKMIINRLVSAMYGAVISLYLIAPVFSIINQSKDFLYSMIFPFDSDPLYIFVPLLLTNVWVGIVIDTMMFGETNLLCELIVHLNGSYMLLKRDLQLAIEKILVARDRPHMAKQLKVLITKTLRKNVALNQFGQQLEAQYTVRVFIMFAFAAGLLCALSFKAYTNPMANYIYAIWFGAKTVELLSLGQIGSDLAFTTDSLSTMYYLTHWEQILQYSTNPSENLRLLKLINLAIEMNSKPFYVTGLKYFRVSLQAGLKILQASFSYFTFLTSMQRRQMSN
Description: EIS sensor, Or35a nanodiscs on gold electrode (Example 4).

Assay [2] addresses T1, OR35a. The assay is described as follows: CNT-FET sensor covalently functionalized with Or35a nanodiscs (Example 3). The protocol:
The dispersion was sonicated until a clear solution was obtained. The temperature was kept at 25° C. throughout the sonication process. The thiolpyridine solution was prepared by dissolving 10 mg of 2-Mercaptopyridine (99%, Sigma Aldrich) in 1 ml of methanol. The solution was spun coated on a polydimethylsiloxane (PDMS) surface at 2000 rpm for one minute. Before the spin coating process, the PDMS surface was cleaned by a 50 W Oxygen plasma for 1 minute to improve the wettability. The cleaned substrates were placed upside down on the PDMS surface for three minutes and washed in ethanol to remove the excess thiolpyridine molecules. Then the substrates were transferred into the CNT suspension and immersed into the suspension for 10 minutes. The samples were removed from the suspension and dipped into Ethanol for another 10 minutes to remove the thiolpyridine molecules in the SWNT network. The alignment markers were deposited by defining the markers by photolithography and thermal evaporation of 5 nm Chromium and 50 nm of Gold. The metal Lift off was done by acetone immersion for 15 minutes followed by an Isopropyl alcohol (IPA) wash and N2 blow dry. The result is a uniform thin film CNT network covering the entire substrate surface. The purification procedure is a variation on the one detailed in […] et al. 2013^14. […] Purity was assessed on Coomassie stained SDS-PAGE gels and Western blotting. […]

For assay [3], the target named is T2, Or22a (Drosophila melanogaster, UniProt P81909).
T2 sequence (P81909 1-397): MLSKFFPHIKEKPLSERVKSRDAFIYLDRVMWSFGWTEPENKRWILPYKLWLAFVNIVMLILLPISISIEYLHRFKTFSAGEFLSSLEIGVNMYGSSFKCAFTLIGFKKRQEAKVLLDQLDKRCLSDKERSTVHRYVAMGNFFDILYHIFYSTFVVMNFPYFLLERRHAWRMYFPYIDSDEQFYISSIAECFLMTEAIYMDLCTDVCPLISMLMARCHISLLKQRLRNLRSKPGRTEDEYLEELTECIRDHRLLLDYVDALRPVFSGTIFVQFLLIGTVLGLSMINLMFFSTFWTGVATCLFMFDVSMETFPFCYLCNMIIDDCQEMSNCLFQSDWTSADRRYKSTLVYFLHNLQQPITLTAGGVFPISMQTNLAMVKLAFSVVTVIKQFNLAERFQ
Description: EIS sensor, Or22a nanodiscs on gold electrode (Example 4).

Assay [4] addresses T2, Or22a. Description: EIS sensor, Or22a liposomes on gold electrode, optimized conditions (Example 5).

Regarding `CCC/C=C/C=O` [E2-hexenal], on OR35a [1] (EIS), the LOD was less than 1 fM. In addition, the limit of detection entry at OR35a [2] (nanodiscs 1:100 dilution) is given as “below 1 fM”. Also, the “concentration at which clear electronic response starts” value on OR35a [2] (real time current measurement mode) is 1 fM. Further, at Or22a [3], the “EIS response to control ligand” value is given as “do not respond”.

As to `CCCCCC(=O)OC` [methyl hexanoate], the LOD on Or22a [4] (EIS) is given as 10 fM; at Or22a [3] (EIS) it was less than 100 pM.

With `COC(=O)c1ccccc1O` [methyl salicylate], the “EIS response to control ligand” value at Or22a [4] is recorded as “do not respond”; at OR35a [1] it was “does not respond”.
